Entries after “also recorded” stand apart in the source; their conditions may differ.
Legend:
[1] = biological target: T1, PCNA (Homo sapiens, UniProt P12004); assay: Immunofluorescence imaging of PCNA in MDA-MB-468 cells; format: cell-based; details: MDA-MB-468, serum starved, 30 minutes drug, then 15 minutes EGF
T1 construct: endogenous in cells; host or cells: MDA-MB-468
Method: (§1) Serum starved cells were treated for 30 minutes with DMSO, AOH1996, Osi, or AOH1996 and Osi followed by 15 minutes of EGF stimulation.

[2] = system: NCI60 cell line panel; assay: Growth inhibition on the NCI60 cell line panel (NCI Developmental Therapeutics Program); format: cell-based
Excerpt: (§2) Studies that explored acquisition of resistance to Osi have identified many genomic alterations that contribute to resistance. These alterations are present in some of the cell lines in the NCI60 cell line panel. The growth inhibitory effects of AOH1996 on the NCI60 panel has been measured through services offered by the NCI's Development Therapeutics Program.

[3] = system: cell lines (14837, 14838) engineered to express oncogenic KRAS; assay: Dose response assay on cell lines with doxycycline-inducible mutant KRAS; format: cell-based; details: with doxycycline (KRAS expressed) versus without
Method: Some of those alterations are present in the NCI60 cell line and represented in the chart. Each circle represent cell lines with the resistance conferring genomic alteration listed on the x-axis. […] FIG. 5F: two cell lines (14837, 14838) engineered to express oncogenic KRAS in the presence of doxycycline (Dox) were treated with escalating doses of AOH1996 in a dose response assay.
as §2

[4] = biological target: T2, EGFR (Homo sapiens, UniProt P00533); assay: Immunofluorescence imaging of EGFR in MDA-MB-468 cells; format: cell-based; details: MDA-MB-468, serum starved, 30 minutes drug, then 15 minutes EGF
T2 construct: endogenous in cells; host or cells: MDA-MB-468
T2 sequence (P00533 25-1210): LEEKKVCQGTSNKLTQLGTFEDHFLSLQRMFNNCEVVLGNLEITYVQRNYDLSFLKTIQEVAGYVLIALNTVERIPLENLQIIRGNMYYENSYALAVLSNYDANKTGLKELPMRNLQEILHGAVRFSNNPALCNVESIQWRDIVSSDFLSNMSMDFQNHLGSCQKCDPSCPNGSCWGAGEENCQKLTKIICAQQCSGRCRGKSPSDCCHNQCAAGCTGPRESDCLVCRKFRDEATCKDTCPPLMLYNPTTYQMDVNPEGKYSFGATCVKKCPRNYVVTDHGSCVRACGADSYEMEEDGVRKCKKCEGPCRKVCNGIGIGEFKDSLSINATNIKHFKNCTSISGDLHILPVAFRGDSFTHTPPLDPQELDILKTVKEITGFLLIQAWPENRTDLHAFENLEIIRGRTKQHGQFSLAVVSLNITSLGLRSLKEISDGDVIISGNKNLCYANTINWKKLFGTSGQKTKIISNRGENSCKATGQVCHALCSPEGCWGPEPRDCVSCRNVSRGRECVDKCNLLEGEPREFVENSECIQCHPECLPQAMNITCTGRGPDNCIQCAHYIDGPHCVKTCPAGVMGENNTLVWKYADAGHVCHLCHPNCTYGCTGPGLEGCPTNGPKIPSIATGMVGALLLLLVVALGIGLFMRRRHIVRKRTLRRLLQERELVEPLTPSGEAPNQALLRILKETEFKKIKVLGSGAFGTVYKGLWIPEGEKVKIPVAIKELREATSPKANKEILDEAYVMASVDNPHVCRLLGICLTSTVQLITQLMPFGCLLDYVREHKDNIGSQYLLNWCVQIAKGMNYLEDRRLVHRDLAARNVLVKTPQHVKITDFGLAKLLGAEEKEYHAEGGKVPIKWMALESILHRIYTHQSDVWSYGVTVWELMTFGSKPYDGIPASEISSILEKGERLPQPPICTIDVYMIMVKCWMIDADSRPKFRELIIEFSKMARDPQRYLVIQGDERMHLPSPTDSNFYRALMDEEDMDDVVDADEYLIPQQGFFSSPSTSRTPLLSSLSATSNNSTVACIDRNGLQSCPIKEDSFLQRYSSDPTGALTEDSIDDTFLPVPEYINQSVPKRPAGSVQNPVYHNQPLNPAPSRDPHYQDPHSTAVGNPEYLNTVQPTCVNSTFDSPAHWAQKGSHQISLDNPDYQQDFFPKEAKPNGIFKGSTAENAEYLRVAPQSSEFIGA
Method: as §1

[5] = system: CRC cell lines; assay: IC50 on colorectal cancer cell lines of the NCI60 panel; format: cell-based; details: IC50 determined by the NCI Developmental Therapeutics Program
Method: FIGS. 7A-7B show EGFR targeted antibodies used in the treatment of colorectal cancer (CRC). […] CRC with KRAS and BRAF activating mutations are often difficult to treat but cell lines with mutant KRAS and BRAF are responsive to AOH1996. FIG. 7A: IC50 of CRC cell lines relative to the rest of the NCI60 cell lines. FIG. 7B: AOH1996 IC50 on CRC cell lines classified by presence and type of Ras-Raf-Mek-Erk pathway mutation. IC50s for the NCI60 cell lines was determined by the NCI Developmental Therapeutics Program. Mutation status of CRC cell lines was found in the Cellosaurus database.

[6] = system: tumors; assay: In vivo tumor suppression and tolerability

T1 sequence (P12004 whole entry): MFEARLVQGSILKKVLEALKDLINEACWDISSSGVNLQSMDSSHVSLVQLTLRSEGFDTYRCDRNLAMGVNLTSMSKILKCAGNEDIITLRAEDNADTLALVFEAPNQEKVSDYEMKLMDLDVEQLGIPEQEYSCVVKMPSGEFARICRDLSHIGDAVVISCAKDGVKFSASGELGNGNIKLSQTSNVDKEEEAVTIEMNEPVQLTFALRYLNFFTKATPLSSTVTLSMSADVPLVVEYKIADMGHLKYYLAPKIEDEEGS

| SMILES | PCNA localization [1] | effect of genomic alterations conferring resistance to osimertinib on sensitivity to AOH1996 ([2]; NCI60 cell lines carrying the alterations) | sensitivity of BRAF and KRAS mutant cell lines to AOH1996 ([2]; NCI60 cell lines with BRAF V600E and activating KRAS mutations) | sensitivity with mutant KRAS expressed versus expression suppressed [3] | EGFR localization and signal [4] | response of CRC cell lines with mutant KRAS and BRAF [5] | sensitivity of CRC cell lines relative to the rest of the NCI60 cell lines [5] | dose with no discernable side effects [6] | route of administration [6] | effect on tumors in vivo ([6]; oral) |
| --- | --- | --- | --- | --- | --- | --- | --- | --- | --- | --- |
| C=CC(=O)Nc1cc(Nc2nccc(-c3cn(C)c4ccccc34)n2)c(OC)cc1N(C)CCN(C)C [osimertinib, reference compound] | less apparent | – | – | – | – | – | – | – | – | – |
| COc1cccc(Oc2ccccc2NC(=O)CNC(=O)c2cccc3ccccc23)c1 [AOH1996] | lost punctate staining of PCNA in the nucleus; also recorded: Nuclear PCNA foci were absent | did not confer resistance | noticeable skew in distribution towards AOH1996 sensitivity; also recorded: greater sensitivity | sensitive to AOH1996 when mutant KRAS is expressed but not when expression was suppressed; also recorded: more sensitive | accumulated EGFR at the cell membrane; also recorded: EGFR was localized to the cell membrane | responsive | particularly sensitive | more than 6 times its effective dose | orally administrable | effectively kills and suppresses tumors |

— patent publication US20240245634A1, “PCNA INHIBITORS AND EGFR INHIBITORS FOR CANCER TREATMENT” (City of Hope, priority 2021, published 2024)
